The test has as its target T1, MDM2 (RING protein) (Homo sapiens, UniProt Q00987).
T1 construct: MDM2 RING protein
Description: isothermal titration calorimetry (auto-iTC200, one-site fit). It counts as binding.

T1 sequence (Q00987 whole entry): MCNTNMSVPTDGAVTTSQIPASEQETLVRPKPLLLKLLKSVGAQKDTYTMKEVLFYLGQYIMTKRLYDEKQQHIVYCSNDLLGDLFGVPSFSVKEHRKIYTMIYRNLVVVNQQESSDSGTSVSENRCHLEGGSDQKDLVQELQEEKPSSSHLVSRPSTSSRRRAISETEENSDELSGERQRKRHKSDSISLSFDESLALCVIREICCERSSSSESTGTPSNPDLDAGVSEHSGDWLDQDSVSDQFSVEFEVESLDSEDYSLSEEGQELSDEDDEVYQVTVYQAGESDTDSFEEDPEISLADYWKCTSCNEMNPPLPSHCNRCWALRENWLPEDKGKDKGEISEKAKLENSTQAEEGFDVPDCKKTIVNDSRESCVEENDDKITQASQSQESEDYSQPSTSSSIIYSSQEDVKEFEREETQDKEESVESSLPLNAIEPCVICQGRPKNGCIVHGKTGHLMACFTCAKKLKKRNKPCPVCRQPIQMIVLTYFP

Regarding `Cc1cc2c(C(C)C)c(O)c(O)c(C=O)c2c(O)c1-c1c(C)cc2c(C(C)C)c(O)c(O)c(C=O)c2c1O` [MX11, gossypol], binding was characterised by a dissociation constant (Kd) of 5.21 µM.

(Values after article PMC5343402, “Gossypol has anti-cancer effects by dual-targeting MDM2 and VEGF in human breast cancer” (Breast Cancer Research : BCR, 2017).)
